This assay relates to CD2F1 mice, L1210 leukemia ip, survival T/C. Briefly: NCI In Vivo Anticancer Drug Screen. Data for tumor model L1210 Leukemia (intraperitoneal) in CD2F1 (CDF1) mice. To be noted: higher = longer survival. The procedure, abridged: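 Read-out first: treated-group measurement over vehicle-control measurement, expressed as a ratio. Animals bore a transplanted tumor line and were dosed with compound or vehicle.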

Setting [1] is: endpoint: mean survival time, dose: 100.0 mg/kg/injection, schedule: Q01DX009 (ip), vehicle: saline with Tween-80.
[2] abbreviates: endpoint: mean survival time, dose: 200.0 mg/kg/injection, schedule: Q01DX009 (ip), vehicle: saline with Tween-80.
[3] abbreviates: endpoint: mean survival time, dose: 50.0 mg/kg/injection, schedule: Q01DX009 (ip), vehicle: saline with Tween-80.
The mark [4] stands for this setting: endpoint: mean survival time, dose: 100.0 mg/kg/injection, schedule: Q04DX003 (ip), vehicle: saline with Tween-80.
The mark [5] stands for this setting: endpoint: mean survival time, dose: 200.0 mg/kg/injection, schedule: Q04DX003 (ip), vehicle: saline with Tween-80.
Where [6] appears, read: endpoint: mean survival time, dose: 400.0 mg/kg/injection, schedule: Q04DX003 (ip), vehicle: saline with Tween-80.
[7] abbreviates: endpoint: mean survival time, dose: 100.0 mg/kg/injection, schedule: Q04DX002 (ip), vehicle: saline with Tween-80.
Where [8] appears, read: endpoint: mean survival time, dose: 200.0 mg/kg/injection, schedule: Q04DX002 (ip), vehicle: saline with Tween-80.
[9] abbreviates: endpoint: mean survival time, dose: 400.0 mg/kg/injection, schedule: Q04DX002 (ip), vehicle: saline with Tween-80.

Each structure is given as a SMILES string. Where “and” joins values, the source holds several entries; their conditions need not be identical. Identical values can stand only once. Inconclusive results and toxic doses are left out.

The results in this text go back to PubChem BioAssay AID256 (DTP/NCI, 2004).

As for `CC(=O)c1c(C(C)C)cc(C(C)C)cc1C(C)C`, the T/C by setting is: under setting [1], 98 % of control; under setting [2], 101 % of control; (endpoint: mean survival time, dose: 400.0 mg/kg/injection, schedule: Q01DX009 (ip), vehicle: saline with Tween-80) 101 % of control.

In the case of `O=C(Nc1ccc(C2=NCCN2)cc1)c1ccc(C(=O)Nc2ccc(C3=NCCN3)cc2)c(Cl)c1`, the T/C is, setting by setting: (endpoint: mean survival time, dose: 0.78 mg/kg/injection, schedule: Q01DX009 (ip), vehicle: saline with Tween-80) 104 % of control; (endpoint: mean survival time, dose: 1.56 mg/kg/injection, schedule: Q01DX009 (ip), vehicle: saline with Tween-80) 104 % of control and 110 % of control and 114 % of control; (endpoint: mean survival time, dose: 2.5 mg/kg/injection, schedule: Q01DX009 (ip), vehicle: saline) 110 % of control; (endpoint: mean survival time, dose: 5.0 mg/kg/injection, schedule: Q01DX009 (ip), vehicle: saline) 110 % of control; (endpoint: mean survival time, dose: 8.0 mg/kg/injection, schedule: Q01DX008 (iv), vehicle: water) 104 % of control; (endpoint: mean survival time, dose: 12.5 mg/kg/injection, schedule: Q01DX009 (ip), vehicle: saline with Tween-80) 203 % of control. In addition, the T/C runs as follows: (endpoint: mean survival time, dose: 20.0 mg/kg/injection, schedule: Q01DX009 (ip), vehicle: saline) 179 % of control; (endpoint: mean survival time, dose: 25.0 mg/kg/injection, schedule: Q01DX009 (ip), vehicle: saline with Tween-80) 250 % of control; (endpoint: mean survival time, dose: 40.0 mg/kg/injection, schedule: Q01DX009 (ip), vehicle: saline) 234 % of control; under setting [3], 86 % of control and 92 % of control; (endpoint: median survival time, dose: 10.0 mg/kg/injection, schedule: Q04DX003 (ip), vehicle: saline with Tween-80) 113 % of control; (endpoint: median survival time, dose: 40.0 mg/kg/injection, schedule: Q04DX003 (ip), vehicle: saline with Tween-80) 162 % of control. Besides, the T/C (endpoint: median survival time, dose: 80.0 mg/kg/injection, schedule: Q04DX003 (ip), vehicle: saline with Tween-80) is 228 % of control.

For the molecule `CC1(C)CC(=O)C2(C)CCC3(CC2C1)OCCO3` (stereo not given), the T/C under setting [4] is 96 % of control, the T/C under setting [5] is 96 % of control and the T/C under setting [6] is 96 % of control.

As for `Cc1sc2ccccc2[n+]1C`, the T/C is, setting by setting: (endpoint: mean survival time, dose: 12.5 mg/kg/injection, schedule: Q01DX009 (ip), vehicle: Klucel (hydroxypropylcellulose) (HPC)) 93 % of control; (endpoint: mean survival time, dose: 25.0 mg/kg/injection, schedule: Q01DX009 (ip), vehicle: Klucel (hydroxypropylcellulose) (HPC)) 95 % of control; (endpoint: mean survival time, dose: 50.0 mg/kg/injection, schedule: Q01DX009 (ip), vehicle: Klucel (hydroxypropylcellulose) (HPC)) 87 % of control.

With `O=C(O)CNCC(C(=O)O)C(=O)O`, the T/C was 96 % of control (endpoint: mean survival time, dose: 25.0 mg/kg/injection, schedule: Q04DX002 (ip), vehicle: saline); 90 % of control (endpoint: mean survival time, dose: 50.0 mg/kg/injection, schedule: Q04DX002 (ip), vehicle: saline); 90 % of control (endpoint: mean survival time, dose: 100.0 mg/kg/injection, schedule: Q04DX002 (ip), vehicle: saline).

Regarding `c1cc(Oc2ccc3ccncc3c2)c2ccncc2c1`, the T/C under setting [4] was 95 % of control, the T/C under setting [5] was 100 % of control and the T/C under setting [6] is 101 % of control.

On to `O=C(Cc1cccc([N+](=O)[O-])c1)Nc1cccc(S(=O)(=O)F)c1`, for which the T/C runs as follows: (endpoint: mean survival time, dose: 100.0 mg/kg/injection, schedule: Q01DX001 (ip), vehicle: saline with Tween-80) 96 % of control; (endpoint: mean survival time, dose: 200.0 mg/kg/injection, schedule: Q01DX001 (ip), vehicle: saline with Tween-80) 95 % of control; (endpoint: mean survival time, dose: 400.0 mg/kg/injection, schedule: Q01DX001 (ip), vehicle: saline with Tween-80) 96 % of control.

As to `CCCC[N+](CCCC)(CCCC)CCCC.[O-][PH+](O)O[PH+]([O-])O.[O-][PH+](O)O[PH+]([O-])O.[O-][PH+](O)O[PH+]([O-])O.[O-][PH+](O)O[PH+]([O-])O.[Pt+2].[Pt+2]`, the T/C is, setting by setting: (endpoint: median survival time, dose: 10.0 mg/kg/injection, schedule: Q04DX003 (ip), vehicle: water) 100 % of control; (endpoint: median survival time, dose: 40.0 mg/kg/injection, schedule: Q04DX003 (ip), vehicle: water) 105 % of control.

As to `O=C1C=CC(=O)c2ccccc21`, the T/C was 94 % of control (endpoint: mean survival time, dose: 1.0 mg/kg/injection, schedule: Q01DX009 (ip), vehicle: Klucel (hydroxypropylcellulose) (HPC)); 104 % of control (endpoint: mean survival time, dose: 1.25 mg/kg/injection, schedule: Q04DX003 (ip), vehicle: saline with Tween-80); 102 % of control (endpoint: mean survival time, dose: 2.0 mg/kg/injection, schedule: Q01DX009 (ip), vehicle: Klucel (hydroxypropylcellulose) (HPC)); 95 % of control (endpoint: mean survival time, dose: 2.5 mg/kg/injection, schedule: Q04DX003 (ip), vehicle: saline with Tween-80); 102 % of control (endpoint: mean survival time, dose: 4.0 mg/kg/injection, schedule: Q01DX009 (ip), vehicle: Klucel (hydroxypropylcellulose) (HPC)).

Consider `CCOc1nc(N)nc2c1ncn2C1CC(O)C(CO)O1` (stereo not given), for which the T/C (endpoint: mean survival time, dose: 12.5 mg/kg/injection, schedule: Q01DX005 (ip), vehicle: water) was 95 % of control; the T/C (endpoint: mean survival time, dose: 25.0 mg/kg/injection, schedule: Q01DX005 (ip), vehicle: water) was 98 % of control; the T/C (endpoint: mean survival time, dose: 50.0 mg/kg/injection, schedule: Q01DX005 (ip), vehicle: water) was 102 % of control; the T/C (endpoint: mean survival time, dose: 100.0 mg/kg/injection, schedule: Q01DX005 (ip), vehicle: water) was 109 % of control; the T/C (endpoint: mean survival time, dose: 200.0 mg/kg/injection, schedule: Q01DX005 (ip), vehicle: water) was 98 % of control.

Consider `CC(C(=O)OC1CCCC2OC12)S(=O)(=O)c1ccccc1` (stereo not given), for which the T/C is 90 % of control under setting [3], 94 % of control under setting [1] and 94 % of control under setting [2].

On to `CCOC(=O)Nc1cc(NCC(=O)CCc2ccccc2)c([N+](=O)[O-])c(N)n1`, for which the T/C by setting is: (endpoint: mean survival time, dose: 100.0 mg/kg/injection, schedule: Q01DX001 (ip), vehicle: Klucel (hydroxypropylcellulose) (HPC)) 93 % of control; (endpoint: mean survival time, dose: 200.0 mg/kg/injection, schedule: Q01DX001 (ip), vehicle: Klucel (hydroxypropylcellulose) (HPC)) 91 % of control; (endpoint: mean survival time, dose: 400.0 mg/kg/injection, schedule: Q01DX001 (ip), vehicle: Klucel (hydroxypropylcellulose) (HPC)) 91 % of control.

In the case of `N#Cc1ncn(C2OC(CO)C(O)C2O)c1N` (stereo not given), the T/C runs as follows: under setting [7], 102 % of control; under setting [8], 105 % of control; under setting [9], 109 % of control.

As to `Cc1cc(-c2ccccc2)cc(=O)[nH]1`, the T/C runs as follows: (endpoint: mean survival time, dose: 100.0 mg/kg/injection, schedule: Q01DX001 (ip), vehicle: other) 92 % of control; (endpoint: mean survival time, dose: 200.0 mg/kg/injection, schedule: Q01DX001 (ip), vehicle: other) 92 % of control; (endpoint: mean survival time, dose: 400.0 mg/kg/injection, schedule: Q01DX001 (ip), vehicle: other) 91 % of control.

As for `CCCCN(CNC(C)=O)N=O`, the T/C was 95 % of control under setting [7], 88 % of control under setting [8] and 100 % of control under setting [9].

For `Clc1nc2nc[nH]c2nc1Cl`, the T/C was 97 % of control (endpoint: mean survival time, dose: 25.0 mg/kg/injection, schedule: Q01DX009 (ip), vehicle: saline sonified); 89 % of control (endpoint: mean survival time, dose: 50.0 mg/kg/injection, schedule: Q01DX009 (ip), vehicle: saline sonified); 98 % of control (endpoint: mean survival time, dose: 100.0 mg/kg/injection, schedule: Q01DX009 (ip), vehicle: saline sonified).

Take `CC(=O)OCC1=C(COC(C)=O)C2OC1C(OC(C)=O)C2OC(C)=O` (stereo not given): the T/C is, setting by setting: under setting [7], 102 % of control; under setting [8], 98 % of control; under setting [9], 94 % of control.

As to `ClC(Cl)(Cl)C1CCC(Br)C2CCCCC21` (stereo not given), the T/C under setting [4] was 92 % of control, the T/C under setting [5] is 100 % of control and the T/C under setting [6] was 96 % of control.

In the case of `Nc1ccc(CCCCNC(=O)c2ccccc2)cc1`, the T/C under setting [4] is 93 % of control, the T/C under setting [5] is 96 % of control and the T/C under setting [6] is 90 % of control.
